Columns and labels:
Type in all cases: in vivo
[1] = test system: Scirpus juncoides; experiment: Herbicidal efficacy on paddy field weeds of pre-emergence stage (Pre), Test Example 1; details: 1000 g/ha as active ingredient, examined after 21 days
Summary of the method: (§1)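 Pre-emergence paddy test: 1000 g/ha active ingredient, formulated and water-diluted, dropped onto 5 cm floodwater one day after sowing both weeds in clay loam. After 21 days in greenhouse, inhibition relative to untreated control rated on 0 (0%) to 5 (100%) scale.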

[2] = test system: Lindernia procumbens; experiment: as above; details: 1000 g/ha as active ingredient, examined after 21 days
Summary of the method: as §1

[3] = test system: Echinochloa crus-galli; experiment: Herbicidal effect on paddy field weeds of post-emergence stage (Post), Test Example 2; details: one-leaf stage, 1000 g/ha as active ingredient, examined after 21 days
Summary of the method: (§2)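 Post-emergence paddy test: formulated compound added to 5 cm standing water at 1000 g/ha a.i. when weeds reached one-leaf stage in clay loam pots in greenhouse. Growth inhibition rated 21 days later versus untreated control on a 0 (0%) to 5 (100%) scale.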

[4] = test system: Scirpus juncoides; experiment: as above; details: one-leaf stage, 1000 g/ha as active ingredient, examined after 21 days
Summary of the method: as §2

[5] = test system: Lindernia procumbens; experiment: as above; details: one-leaf stage, 1000 g/ha as active ingredient, examined after 21 days
Summary of the method: as §2

## CC(C)COC(=O)N(c1ccccc1CN1CCC(c2ccccc2)(C2CCC2)OC1=O)S(=O)(=O)C(F)(F)F (stereo not shown) [Compound 1-211]
[1]
  Scirpus juncoides pre (herbicidal effect): 4 (90%-99% herbicidal effect, phytotoxicity)
[2]
  Lindernia procumbens pre (herbicidal effect): 4 (90%-99% herbicidal effect, phytotoxicity)
[3]
  Echinochloa crus-galli post (herbicidal effect): 4 (90%-99% herbicidal effect, phytotoxicity)
[4]
  Scirpus juncoides post (herbicidal effect): 4 (90%-99% herbicidal effect, phytotoxicity)
[5]
  Lindernia procumbens post (herbicidal effect): 4 (90%-99% herbicidal effect, phytotoxicity)

## CCOC(=O)N(c1ccccc1CN1CCC(c2ccccc2)(C(F)(F)F)OC1=O)S(=O)(=O)C(F)(F)F (stereo not shown) [Compound 1-230]
[1]
  Scirpus juncoides pre (herbicidal effect): 5 (100% herbicidal effect, phytotoxicity)
[2]
  Lindernia procumbens pre (herbicidal effect): 5 (100% herbicidal effect, phytotoxicity)
[3]
  Echinochloa crus-galli post (herbicidal effect): 4 (90%-99% herbicidal effect, phytotoxicity)
[4]
  Scirpus juncoides post (herbicidal effect): 4 (90%-99% herbicidal effect, phytotoxicity)
[5]
  Lindernia procumbens post (herbicidal effect): 5 (100% herbicidal effect, phytotoxicity)

## CC1(C)CN(Cc2ccccc2NS(=O)(=O)C(F)(F)F)C(=O)OC1c1ccccc1 (stereo not shown) [Compound 1-261]
[1]
  Scirpus juncoides pre (herbicidal effect): 5 (100% herbicidal effect, phytotoxicity)
[2]
  Lindernia procumbens pre (herbicidal effect): 5 (100% herbicidal effect, phytotoxicity)
[3]
  Echinochloa crus-galli post (herbicidal effect): 4 (90%-99% herbicidal effect, phytotoxicity)
[4]
  Scirpus juncoides post (herbicidal effect): 4 (90%-99% herbicidal effect, phytotoxicity)
[5]
  Lindernia procumbens post (herbicidal effect): 5 (100% herbicidal effect, phytotoxicity)

## CCOC(=O)N(c1ccccc1CN1CC(C)(C)C(c2ccccc2)OC1=O)S(=O)(=O)C(F)(F)F (stereo not shown) [Compound 1-263]
[1]
  Scirpus juncoides pre (herbicidal effect): 4 (90%-99% herbicidal effect, phytotoxicity)
[2]
  Lindernia procumbens pre (herbicidal effect): 5 (100% herbicidal effect, phytotoxicity)
[3]
  Echinochloa crus-galli post (herbicidal effect): 4 (90%-99% herbicidal effect, phytotoxicity)
[4]
  Scirpus juncoides post (herbicidal effect): 4 (90%-99% herbicidal effect, phytotoxicity)
[5]
  Lindernia procumbens post (herbicidal effect): 5 (100% herbicidal effect, phytotoxicity)

## O=C1OC(c2c(Cl)cccc2Cl)CCN1Cc1ccccc1NS(=O)(=O)C(F)(F)F (stereo not shown) [Compound 1-272]
[1]
  Scirpus juncoides pre (herbicidal effect): 4 (90%-99% herbicidal effect, phytotoxicity)
[2]
  Lindernia procumbens pre (herbicidal effect): 5 (100% herbicidal effect, phytotoxicity)
[3]
  Echinochloa crus-galli post (herbicidal effect): 4 (90%-99% herbicidal effect, phytotoxicity)
[4]
  Scirpus juncoides post (herbicidal effect): 4 (90%-99% herbicidal effect, phytotoxicity)
[5]
  Lindernia procumbens post (herbicidal effect): 5 (100% herbicidal effect, phytotoxicity)

## CCOC(=O)N(c1ccccc1CN1CCC(c2c(Cl)cccc2Cl)OC1=O)S(=O)(=O)C(F)(F)F (stereo not shown) [Compound 1-274]
[1]
  Scirpus juncoides pre (herbicidal effect): 4 (90%-99% herbicidal effect, phytotoxicity)
[2]
  Lindernia procumbens pre (herbicidal effect): 5 (100% herbicidal effect, phytotoxicity)
[3]
  Echinochloa crus-galli post (herbicidal effect): 4 (90%-99% herbicidal effect, phytotoxicity)
[4]
  Scirpus juncoides post (herbicidal effect): 4 (90%-99% herbicidal effect, phytotoxicity)
[5]
  Lindernia procumbens post (herbicidal effect): 5 (100% herbicidal effect, phytotoxicity)

## Cc1ccccc1C1CCN(Cc2ccccc2NS(=O)(=O)C(F)(F)F)C(=O)O1 (stereo not shown) [Compound 1-283]
[1]
  Scirpus juncoides pre (herbicidal effect): 5 (100% herbicidal effect, phytotoxicity)
[2]
  Lindernia procumbens pre (herbicidal effect): 5 (100% herbicidal effect, phytotoxicity)
[3]
  Echinochloa crus-galli post (herbicidal effect): 4 (90%-99% herbicidal effect, phytotoxicity)
[4]
  Scirpus juncoides post (herbicidal effect): 4 (90%-99% herbicidal effect, phytotoxicity)
[5]
  Lindernia procumbens post (herbicidal effect): 5 (100% herbicidal effect, phytotoxicity)

## CCOC(=O)N(c1ccccc1CN1CCC(c2ccccc2C)OC1=O)S(=O)(=O)C(F)(F)F (stereo not shown) [Compound 1-285]
[1]
  Scirpus juncoides pre (herbicidal effect): 4 (90%-99% herbicidal effect, phytotoxicity)
[2]
  Lindernia procumbens pre (herbicidal effect): 5 (100% herbicidal effect, phytotoxicity)
[3]
  Echinochloa crus-galli post (herbicidal effect): 4 (90%-99% herbicidal effect, phytotoxicity)
[4]
  Scirpus juncoides post (herbicidal effect): 4 (90%-99% herbicidal effect, phytotoxicity)
[5]
  Lindernia procumbens post (herbicidal effect): 5 (100% herbicidal effect, phytotoxicity)

## CCOC(=O)N(c1ccccc1CN1CCC(c2ccccc2C(F)(F)F)OC1=O)S(=O)(=O)C(F)(F)F (stereo not shown) [Compound 1-296]
[1]
  Scirpus juncoides pre (herbicidal effect): 4 (90%-99% herbicidal effect, phytotoxicity)
[2]
  Lindernia procumbens pre (herbicidal effect): 5 (100% herbicidal effect, phytotoxicity)
[3]
  Echinochloa crus-galli post (herbicidal effect): 4 (90%-99% herbicidal effect, phytotoxicity)
[4]
  Scirpus juncoides post (herbicidal effect): 4 (90%-99% herbicidal effect, phytotoxicity)
[5]
  Lindernia procumbens post (herbicidal effect): 5 (100% herbicidal effect, phytotoxicity)

## CCC1(c2ccccc2)CCN(Cc2ccccc2NS(=O)(=O)C(F)(F)F)C(=O)O1 (stereo not shown) [Compound 1-316]
[1]
  Scirpus juncoides pre (herbicidal effect): 4 (90%-99% herbicidal effect, phytotoxicity)
[2]
  Lindernia procumbens pre (herbicidal effect): 5 (100% herbicidal effect, phytotoxicity)
[3]
  Echinochloa crus-galli post (herbicidal effect): 4 (90%-99% herbicidal effect, phytotoxicity)
[4]
  Scirpus juncoides post (herbicidal effect): 4 (90%-99% herbicidal effect, phytotoxicity)
[5]
  Lindernia procumbens post (herbicidal effect): 5 (100% herbicidal effect, phytotoxicity)

## CCC1(c2ccccc2)CCN(Cc2ccccc2N(C(=O)OC)S(=O)(=O)C(F)(F)F)C(=O)O1 (stereo not shown) [Compound 1-317]
[1]
  Scirpus juncoides pre (herbicidal effect): 4 (90%-99% herbicidal effect, phytotoxicity)
[2]
  Lindernia procumbens pre (herbicidal effect): 5 (100% herbicidal effect, phytotoxicity)
[3]
  Echinochloa crus-galli post (herbicidal effect): 4 (90%-99% herbicidal effect, phytotoxicity)
[4]
  Scirpus juncoides post (herbicidal effect): 4 (90%-99% herbicidal effect, phytotoxicity)
[5]
  Lindernia procumbens post (herbicidal effect): 5 (100% herbicidal effect, phytotoxicity)

## CCOC(=O)N(c1ccccc1CN1CCC(CC)(c2ccccc2)OC1=O)S(=O)(=O)C(F)(F)F (stereo not shown) [Compound 1-318]
[1]
  Scirpus juncoides pre (herbicidal effect): 4 (90%-99% herbicidal effect, phytotoxicity)
[2]
  Lindernia procumbens pre (herbicidal effect): 5 (100% herbicidal effect, phytotoxicity)
[3]
  Echinochloa crus-galli post (herbicidal effect): 4 (90%-99% herbicidal effect, phytotoxicity)
[4]
  Scirpus juncoides post (herbicidal effect): 4 (90%-99% herbicidal effect, phytotoxicity)
[5]
  Lindernia procumbens post (herbicidal effect): 5 (100% herbicidal effect, phytotoxicity)

## CCC1(c2ccccc2)CCN(Cc2ccccc2N(C(=O)OCC(C)C)S(=O)(=O)C(F)(F)F)C(=O)O1 (stereo not shown) [Compound 1-321]
[1]
  Scirpus juncoides pre (herbicidal effect): 4 (90%-99% herbicidal effect, phytotoxicity)
[2]
  Lindernia procumbens pre (herbicidal effect): 5 (100% herbicidal effect, phytotoxicity)
[3]
  Echinochloa crus-galli post (herbicidal effect): 4 (90%-99% herbicidal effect, phytotoxicity)
[4]
  Scirpus juncoides post (herbicidal effect): 4 (90%-99% herbicidal effect, phytotoxicity)
[5]
  Lindernia procumbens post (herbicidal effect): 5 (100% herbicidal effect, phytotoxicity)

## CC(C)(C)C1(C)CCN(Cc2ccccc2NS(=O)(=O)C(F)(F)F)C(=O)O1 (stereo not shown) [Compound 1-327]
[1]
  Scirpus juncoides pre (herbicidal effect): 5 (100% herbicidal effect, phytotoxicity)
[2]
  Lindernia procumbens pre (herbicidal effect): 5 (100% herbicidal effect, phytotoxicity)
[3]
  Echinochloa crus-galli post (herbicidal effect): 4 (90%-99% herbicidal effect, phytotoxicity)
[4]
  Scirpus juncoides post (herbicidal effect): 4 (90%-99% herbicidal effect, phytotoxicity)
[5]
  Lindernia procumbens post (herbicidal effect): 5 (100% herbicidal effect, phytotoxicity)

From US8048825B2, “Haloalkylsulfonanilide derivatives or salt thereof, herbicide comprising the derivatives as active ingredient, and use of the herbicide” (Nihon Nohyaku Co., Ltd., priority 2006, dated 2011)
